Test results from patent US20230203485A1, “METHODS FOR MODULATING MHC-I EXPRESSION AND IMMUNOTHERAPY USES THEREOF” (Dana-Farber Cancer Institute, Inc., priority 2020, published 2023).

System: class I antigen presentation gene expression in MCC cell lines
Assay: RNA-seq / DESeq2 differential expression of MCC cell lines at baseline and after IFN-γ stimulation
Type: cell-based, human
Conditions: 11 MCC cell lines, baseline vs IFNγ, negative LFC = upregulation in IFNγ-treated
Method: FIG. 2A comprises RNA-seq heatmaps of class I antigen presentation gene expression in MCC lines and controls.
FIG. 2B is a volcano plot of differentially expressed genes (genes below FDR cutoff 0.01 are shown in yellow) between baseline and IFN-γ-treated MCC cell lines. Differential expression analysis was performed using DESeq2, and negative LFC indicates increased expression in +IFN-γ samples. IFN genes are highlighted in red.
RNA samples were first assessed for quality using the Agilent Bioanalyzer (DV200 metric). One hundred ng of RNA were used as the input for first strand cDNA synthesis using Superscript III reverse transcriptase and Illumina's TruSeq RNA Access Sample Prep Kit. Synthesis of the second strand of cDNA was followed by indexed adapter ligation with UMI (unique molecular index) adaptors. Subsequent PCR amplification enriched for adapted fragments. Amplified libraries were quantified, normalized, pooled, and hybridized with exome targeting oligos. Following hybridization, bead clean-up, elution and PCR was performed to prepare library pools for sequencing on Illumina flowcell lanes. Transcriptomes were sequenced to a coverage of at least 50 million reads in pairs.
Raw fastq files for fibroblast and keratinocyte control lines were downloaded from SRA using R Bioconductor package SRAdb (Mayakonda et al. (2018) supra; Zhu et al. (2013) BMC Bioinformatics 14 (1): 1-4) using accession codes SRP126422 (4 replicates from control samples ‘NN’) and SRP131347 (6 replicates with condition: control and genotype: control). These fastq files, along with those for the mkl1 and waga cell lines, were aligned using STAR version 2.7.3a (Dobin et al. (2013) Bioinformatics 29 (1): 15-21), using index genome reference file downloaded from ftp.ebi.ac.uk/pub/databases/gencode/Gencode_human/release_19/GRCh37.p13.genome.fa.gz, transcript annotation file downloaded from data.broadinstitute.org/snowman/hg19/star/gencode.v19.annotation.gtf, and with the following options: --twopassMode Basic, --outSAMstrandField intronMotif, --alignIntronMax 1000000, --alignMatesGapMax 1000000, --sjdbScore 2, --outSAMtype BAM Unsorted, --outSAMattributes NH HI NM MD AS XS, --outFilterType BySJout, --outSAMunmapped Within, --genomeLoad NoSharedMemory, --outFilterScoreMinOverLread 0, --outFilterMatchNminOverLread 0, --outFilterMismatchNmax 999, and outFilterMultimapNmax 20. Duplicates were marked with picard MarkDuplicates version 2.22.0-SNAPSHOT.
RNA-sequencing bam files for MCC tumor and cell line samples were downloaded from the Broad Genomics Firecloud/Terra platform using the Google Cloud Storage command line tool gsutil version 4.5 (github.com/GoogleCloudPlatform/gsutil/).
Gene counts were obtained from bam files using featureCounts version 2.0.0 (doi.org/10.1093/bioinformatics/btt656). Very lowly expressed genes with average count across samples less than 1 were excluded from analysis. Between-sample distance metrics were computed using the Euclidean distance on the vectors of variance-stabilized counts obtained from the vst function in the DESeq2 R Bioconductor package ([…]; Love et al. (2014) Genome Biology 15 (12): 550).
Differential expression analysis was carried out between (1) viral positive and viral negative samples (adjusting for cell line or tumor as a covariate), (2) cell line and tumor samples (adjusting for viral status as a covariate), and (3) IFNγ plus and minus samples (adjusting for viral status as a covariate) using the negative binomial GLM Wald test of DESeq2, where significance was assessed using the p-values adjusted for multiple comparisons under default settings. To account for potential global gene expression differences among sample groups, RUVg (Risso et al. (2014) […] 32 (9): 896-902) was used to estimate latent factors of unwanted variation from the list of housekeeping genes downloaded from www.tau.ac.il/˜elieis/HKG/HK_genes.txt. […]

IFN-y: type II interferon, recombinant human, used to treat MCC cells
log2FoldChange PLCH1 (ENSG00000114805.12): −3.192
log2FoldChange PLSCR1 (ENSG00000188313.8): −1.918
log2FoldChange PSMA1 (ENSG00000129084.13): −0.53
log2FoldChange PSMA5 (ENSG00000143106.8): −0.7265
log2FoldChange PSMB8 (ENSG00000204264.4): −4.624
log2FoldChange PSMB8-AS1 (ENSG00000204261.4): −4.829
log2FoldChange PSMB9 (ENSG00000240065.3): −8.037
log2FoldChange RAB19 (ENSG00000146955.6): −3.348
log2FoldChange RALB (ENSG00000144118.9): −1.199
log2FoldChange RARRES3 (ENSG00000133321.6): −9.075
log2FoldChange RASGRP3 (ENSG00000152689.13): −3.804
log2FoldChange RCN1 (ENSG00000049449.4): −0.8151
log2FoldChange RNASET2 (ENSG00000026297.11): −1.4
log2FoldChange RNF19B (ENSG00000116514.12): −0.8512
log2FoldChange RPS6KA2-AS1 (ENSG00000231654.1): −4.029
log2FoldChange RSAD2 (ENSG00000134321.7): −4.639
log2FoldChange RTP4 (ENSG00000136514.2): −9.766
log2FoldChange RUFY4 (ENSG00000188282.8): −4.154
log2FoldChange SAMD9L (ENSG00000177409.7): −9.221
log2FoldChange SCYL3 (ENSG00000000457.9): −0.6381
log2FoldChange SERPING1 (ENSG00000149131.11): −10.06
log2FoldChange SERPINI2 (ENSG00000114204.10): −4.132
log2FoldChange SLC15A3 (ENSG00000110446.5): −6.048
log2FoldChange SMCO3 (ENSG00000179256.2): −4.85
log2FoldChange SP100 (ENSG00000067066.12): −6.178
log2FoldChange SP110 (ENSG00000135899.12): −5.912
log2FoldChange SP140 (ENSG00000079263.14): −4.071
log2FoldChange SP140L (ENSG00000185404.12): −4.749
log2FoldChange SPATA1 (ENSG00000122432.12): −1.828
log2FoldChange SRD5A3-AS1 (ENSG00000249700.4): −1.935
log2FoldChange STAT1 (ENSG00000115415.14): −4.434
log2FoldChange STAT2 (ENSG00000170581.9): −2.028
log2FoldChange SYNJ2 (ENSG00000078269.9): −1.182
log2FoldChange TAP1 (ENSG00000168394.9): −6.326
log2FoldChange TAP2 (ENSG00000204267.9): −4.845
log2FoldChange TAPBP (ENSG00000231925.7): −2.025
log2FoldChange TAPBPL (ENSG00000139192.7): −2.548
log2FoldChange TCAF2 (ENSG00000170379.15): −3.033
log2FoldChange TDRD7 (ENSG00000196116.6): −0.8648
log2FoldChange TLR3 (ENSG00000164342.8): −6.019
log2FoldChange TMEM108-AS1 (ENSG00000251011.1): −3.649
log2FoldChange TMEM140 (ENSG00000146859.6): −7.381
log2FoldChange TNFRSF14 (ENSG00000157873.13): −3.995
log2FoldChange TNFSF10 (ENSG00000121858.6): −4.43
log2FoldChange TRIM5 (ENSG00000132256.14): −4.923
log2FoldChange TRIM21 (ENSG00000132109.8): −5.586
log2FoldChange TRIM22 (ENSG00000132274.11): −9.394
log2FoldChange TRIM26 (ENSG00000234127.4): −0.6803
log2FoldChange TRIM56 (ENSG00000169871.8): −2.411
log2FoldChange UBA7 (ENSG00000182179.6): −5.004
log2FoldChange UBE2L6 (ENSG00000156587.11): −4.982
log2FoldChange UBR2 (ENSG00000024048.6): −0.9247
log2FoldChange USP33 (ENSG00000077254.10): −0.3836
log2FoldChange USP42 (ENSG00000106346.7): −0.5211
log2FoldChange WDR49 (ENSG00000174776.6): −4.564
log2FoldChange ZC3HAV1 (ENSG00000105939.8): −1.2
log2FoldChange (ACP5 ENSG00000102575.6): −3.911
log2FoldChange (B2M ENSG00000166710.13): −3.927
log2FoldChange (BCO1 ENSG00000135697.5): −3.705
log2FoldChange (BST2 ENSG00000130303.8): −9.567
log2FoldChange (C19orf38 ENSG00000214212.4): −2.581
log2FoldChange (C19orf66 ENSG00000130813.13): −3.602
log2FoldChange (CAPN3 ENSG00000092529.18): −1.639
log2FoldChange (CCDC194 ENSG00000269720.1): −5.08
log2FoldChange (CCL8 ENSG00000108700.4): −4.991
log2FoldChange (CCL25 ENSG00000131142.9): −5.742
log2FoldChange (CEACAM1 ENSG00000079385.17): −6.01
log2FoldChange (CIITA ENSG00000179583.13): −10.08
log2FoldChange (CX3CL1 ENSG00000006210.6): −2.039
log2FoldChange (DGLUCY ENSG00000133943.16): −1.417
log2FoldChange (DHX58 ENSG00000108771.8): −3.063
log2FoldChange (DLGAP1-AS5 ENSG00000261520.1): −7.006
log2FoldChange (DOCK9 ENSG00000088387.13): −1.102
log2FoldChange (DRAM1 ENSG00000136048.9): −2.646
log2FoldChange (ENSG00000225131.1 (symbol NA)): −1.967
log2FoldChange (ENSG00000238045.5 (symbol NA)): −1.974
log2FoldChange (ENSG00000238528.1 (symbol NA)): −1.287
log2FoldChange (ENSG00000258733.1 (symbol NA)): −3.393
